Assay [1] deals with dog that suffers from chronic seizures. Put plainly: Treatment of epilepsy. The assay is classed as in vivo. The conditions noted are these: report of the dog's owners. The protocol:
A dog that suffers from chronic seizures was administered a glycerol tincture containing the cannabidiol anion immediately after the onset of a seizure.

Assay [2] relates to individual with social anxiety associated with presenting at business meetings. Kind of assay: Treatment of social anxiety. The assay is classed as in vivo, human. The settings on record: beverage given before presenting at a business meeting; self-report. The procedure:
An individual who presented with social anxiety associated with presenting at business meetings was administered a beverage containing the cannabidiol anion before presenting.

Assay [3] concerns individual with hip pain and lower back pain associated with spinal fusion surgery. Kind of assay: Treatment of post laminectomy syndrome. The settings on record: glycerol tincture, ingested, self-report. The assay is classed as in vivo, human. The protocol:
An individual with hip pain and lower back pain associated with spinal fusion surgery was administered a glycerol tincture containing the cannabidiol anion.

Assay [4] relates to individual with cancer pain caused by throat cancer. Put plainly: Treatment of cancer pain. The assay is classed as in vivo, human. The settings on record: water containing the anion, ingested; self-report of one individual. The procedure: An individual who presented with cancer pain caused by throat cancer was administered water containing the cannabidiol anion (2-[6-isopropenyl-3-methylcyclohex-2-en-1-yl]-3-hydroxy-5-pentylphenolate).

Assay [5] concerns individual with cramping and restless legs syndrome. Put plainly: Treatment of cramping and restless legs syndrome. The settings on record: glycerol tincture before sleep; self-report of one individual. The assay is classed as in vivo, human. The protocol: An individual who presented with cramping and restless legs syndrome was administered a glycerol tincture containing the cannabidiol anion before sleep.

For assay [6], the system named is individual with back pain associated with driving for prolonged periods of time. Kind of assay: Treatment of acute back pain. The conditions noted are these: glycerol tincture, ingested; self-report of one individual. The assay is classed as in vivo, human. The protocol: An individual who presented with back pain associated with driving for prolonged periods of time was administered a glycerol tincture containing the cannabidiol anion.

Assay [7] deals with individual with hip pain associated with sitting. Kind of assay: Treatment of chronic hip pain. The assay is classed as in vivo, human. The conditions noted are these: glycerol tincture, ingested; self-report of one individual. The procedure:
An individual who presented with hip pain associated with sitting was administered a glycerol tincture containing the cannabidiol anion.

In assay [8] the test system is individual with arthritis. Kind of assay: Treatment of arthritis. The conditions noted are these: glycerol tincture; self-report of one individual. The assay is classed as in vivo, human. The procedure: An individual who was unable to fill […] hydroxychloroquine prescription to treat the arthritis during the COVID-19 pandemic was administered a glycerol tincture containing the cannabidiol anion.

Assay [9] relates to individual with chronic back pain associated with standing. Put plainly: Treatment of chronic back pain. The assay is classed as in vivo, human. The conditions noted are these: glycerol tincture, ingested; self-report of one individual. The protocol: An individual who presented with chronic back pain associated with standing was administered a glycerol tincture containing the cannabidiol anion.

The subject of a further assay is individual with anxiety. Put plainly: Treatment of anxiety. The assay is classed as in vivo, human. The procedure: An individual was administered a beverage containing the cannabidiol anion prior to driving to an airport to catch a flight that was scheduled to leave within thirty minutes of the arrival at the airport.
An individual who suffers from chronic anxiety was administered a glycerol tincture containing the cannabigerol anion.

Assay [10] has as its system individual with chronic pain. Put plainly: Treatment of chronic pain. The assay is classed as in vivo, human. The conditions noted are these: glycerol tincture; self-report of one individual. The procedure:
An individual who presented with chronic pain was administered a glycerol tincture containing the cannabidiol anion.

The subject of assay [11] is individual with knee pain associated with inflammation caused by trauma from a fall. Kind of assay: Treatment of knee pain. The assay is classed as in vivo, human. The conditions noted are these: glycerol tincture, ingested; self-report of one individual. The protocol: An individual who presented with knee pain associated with inflammation caused by trauma from a fall was administered a glycerol tincture containing the cannabidiol anion.

The subject of assay [12] is individual with chronic insomnia. Kind of assay: Treatment of insomnia. The conditions noted are these: glycerol tincture before sleep; self-report of one individual. The assay is classed as in vivo, human. The protocol: An individual who presented with chronic insomnia was administered a glycerol tincture containing the cannabigerol anion before sleep.
Assay [13] deals with individual with Inflammatory Bowel Disease. Put plainly: Treatment of Inflammatory Bowel Disease. The conditions noted are these: glycerol tincture; self-report of one individual. The assay is classed as in vivo, human. The procedure: An individual who presented with Inflammatory Bowel Disease was administered a glycerol tincture containing the cannabigerol anion.
The test system of assay [14] is individual with Crohn's disease. Kind of assay: Treatment of Crohn's disease. The assay is classed as in vivo, human. The settings on record: glycerol tincture; self-report of one individual. The protocol: An individual who presented with Crohn's disease was administered a glycerol tincture containing the cannabigerol anion.

The record followed here is US12161608B2, “Methods of preventing and treating health conditions using cannabinoid anions” (NATURAL EXTRACTION SYSTEMS, LLC, priority 2019, dated 2024).

As for `C=C(C)C1CCC(C)=CC1c1c(O)cc(CCCCC)cc1O` (centres unmarked) [cannabidiol anion, 2-[6-isopropenyl-3-methylcyclohex-2-en-1-yl]-3-hydroxy-5-pentylphenolate], the effect on seizures result in assay [1] (glycerol tincture immediately after the onset of a seizure) was “both instantaneously and consistently arrested multiple seizures in the dog”. Besides, in assay [1] (glycerol tincture), the “effect on quality of life” value is given as “significantly improved the dog's quality of life”. The “reported effect on social anxiety and performance” value in assay [2] was “reduced anxiety and improved performance during the business meeting”. Further, the “reported effect on hip pain and lower back pain” value in [3] was “notable alleviation of hip pain and lower back pain within minutes of ingestion”. Also, in assay [4], the “reported effect on throat pain” value was “notable alleviation of throat pain within minutes of ingestion”. For the same compound, in assay [5], the “reported effect on sleep quality” value is reported as “significant improvement in sleep quality”. In [6], the “reported effect on back pain” value is “notable alleviation of the back pain within minutes of ingestion”. For the same compound, in assay [7], the “reported effect on hip pain” value is listed as “notable alleviation of the hip pain within minutes of ingestion”. Besides, the “reported effectiveness at treating arthritis compared with hydroxychloroquine” value in assay [8] is “more effective at treating their arthritis than hydroxychloroquine”. In assay [9], the “reported effect on chronic back pain” value was “notable alleviation of the back pain within minutes of ingestion”. Moreover, in the assay on individual with anxiety (beverage given prior to driving, self-report of one individual), the “reported anxiety during a drive to an airport” value is “notable absence of anxiety”. Moreover, the “reported effect in chronic pain (standard of living)” value in [10] was “significant improvement in their standard of living”. The “reported effect on mobility and knee pain” value in [11] was “improved mobility and alleviation of knee pain within minutes of ingestion”.

As to `CCCCCc1cc(O)c(CC=C(C)CCC=C(C)C)c(O)c1` [cannabigerol anion, 2-[3,7-dimethylocta-2,6-diene-1-yl]-3-hydroxy-5-pentylphenolate], in assay [12], the “reported effect on onset and quality of sleep” value is “significant improvement in the onset and quality of their sleep”. Also, the “reported effect on symptoms of Inflammatory Bowel Disease” value in assay [13] is “significant improvement in their symptoms of Inflammatory Bowel Disease”. The “reported effect on chronic anxiety symptoms” value with individual with anxiety (glycerol tincture, individual who suffers from chronic anxiety, self-report) is given as “significant improvement in their anxiety symptoms”. Further, the “reported effect on symptoms of Crohn's disease” value in [14] was “significant improvement in their symptoms of Crohn's disease”.
